Source: patent US20260028326A1, “COMPOUND BASED ON ISOINDOLINE-SUBSTITUTED GLUTARIMIDE BACKBONE AND USE THEREOF” (GLUETACS THERAPEUTICS (SHANGHAI) CO., LTD., priority 2022, published 2026)

Target: human Cereblon WT GST-tagged protein (Homo sapiens (Human), UniProt Q96SW2)
Assay: CRBN-binding affinity, HTRF (CEREBLON BINDING kit)
How it was run: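 HTRF competition readout: compounds compete with a thalidomide-Re conjugate for GST-tagged wild-type human CRBN detected via Eu-labelled anti-GST antibody. Inhibition rate derived relative to protein-free blank wells.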

Sequence of human Cereblon WT GST-tagged protein (Q96SW2 whole entry): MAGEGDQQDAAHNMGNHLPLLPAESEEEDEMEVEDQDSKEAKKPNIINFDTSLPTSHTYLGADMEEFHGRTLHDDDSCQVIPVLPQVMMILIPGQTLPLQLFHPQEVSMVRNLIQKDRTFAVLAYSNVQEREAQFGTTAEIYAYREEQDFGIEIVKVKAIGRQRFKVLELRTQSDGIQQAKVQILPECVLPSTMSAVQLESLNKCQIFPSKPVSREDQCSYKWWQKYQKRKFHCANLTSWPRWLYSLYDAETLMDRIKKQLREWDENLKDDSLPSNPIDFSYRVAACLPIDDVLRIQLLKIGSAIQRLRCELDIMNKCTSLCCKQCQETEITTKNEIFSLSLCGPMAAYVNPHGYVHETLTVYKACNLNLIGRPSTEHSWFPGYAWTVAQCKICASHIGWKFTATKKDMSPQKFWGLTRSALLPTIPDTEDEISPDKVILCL

Row | SMILES | IC50 [µM]
1 | CC1(C)CCC(C(=O)N2CC3CC2CN3Cc2ccc3c(c2)CN(C2CCC(=O)NC2=O)C3=O)=C(c2ccc(Cl)cc2)C1 (stereo not shown) [GT-05524, 3-(5-((5-(4′-chloro-5,5-dimethyl-3,4,5,6-tetrahydro-[1,1′-biphenyl]-2-carbonyl)-2,5-diazabicyclo[2.2.1]heptan-2-yl)methyl)-1-oxoisoindolin-2-yl)piperidine-2,6-dione] | 0.49
2 | CC1(C)CCC(CN2CC3CC(C2)N3Cc2cc3c(cc2F)C(=O)N(C2CCC(=O)NC2=O)C3)=C(c2ccc(Cl)cc2)C1 (stereo not shown) [GT-05367, 3-(5-((3-((4′-chloro-5,5-dimethyl-3,4,5,6-tetrahydro-[1,1′-biphenyl]-2-yl)methyl)-3,6-diazabicyclo[3.1.1]heptan-6-yl)methyl)-6-fluoro-1-oxoisoindolin-2-yl)piperidine-2,6-dione] | 0.4
3 | O=C1CCC(N2Cc3ccc(CN4CCN(CC5=C(c6ccc(F)cc6)CCCC5)CC4)cc3C2=O)C(=O)N1 (stereo not shown) [GT-05465, 3-(6-((4-((4′-fluoro-3,4,5,6-tetrahydro-[1,1′-biphenyl]-2-yl)methyl)piperazin-1-yl)methyl)-1-oxoisoindolin-2-yl)piperidine-2,6-dione] | 0.83
4 | O=C1CCC(N2C(=O)c3ccc(C(=O)N4CCN(Cc5cccc(-c6ccc(Cl)cc6)c5)CC4)cc3C2=O)C(=O)N1 (stereo not shown) [GT-05631, 5-(4-((4′-chloro-[1,1′-biphenyl]-3-yl)methyl)piperazine-1-carbonyl)-2-(2,6-dioxopiperidin-3-yl)isoindoline-1,3-dione] | 1.75
5 | CC1(C)CCC(CN2CC3CC(C2)N3Cc2ccc3c(c2)CN(C2CCC(=O)NC2=O)C3=O)=C(c2ccc(Cl)cc2)C1 (stereo not shown) [GT-03492, 3-(5-((3-((4′-chloro-5,5-dimethyl-3,4,5,6-tetrahydro-[1,1′-biphenyl]-2-yl)methyl)-3,6-diazabicyclo[3.1.1]heptan-6-yl)methyl)-1-oxoisoindolin-2-yl)piperidine-2,6-dione] | 0.52
6 | CC1(C)CCC(CN2CC(O)(C(O)c3ccc4c(c3)CN(C3CCC(=O)NC3=O)C4=O)C2)=C(c2ccc(F)cc2)C1 (stereo not shown) [GT-05499, 3-(5-((1-((4′-fluoro-5,5-dimethyl-3,4,5,6-tetrahydro-[1,1′-biphenyl]-2-yl)methyl)-3-hydroxyazetidin-3-yl)(hydroxy)methyl)-1-oxoisoindolin-2-yl)piperidine-2,6-dione] | 0.67
7 | CC1(C)CCC(C(=O)N2C3CCC2CN(Cc2ccc4c(c2)CN(C2CCC(=O)NC2=O)C4=O)C3)=C(c2ccc(Cl)cc2)C1 (stereo not shown) [GT-05523, 3-(5-((8-(4′-chloro-5,5-dimethyl-3,4,5,6-tetrahydro-[1,1′-biphenyl]-2-carbonyl)-3,8-diazabicyclo[3.2.1]octan-3-yl)methyl)-1-oxoisoindolin-2-yl)piperidine-2,6-dione] | 0.86
8 | CC1(C)CCC(CN2CCCN(C(=O)c3ccc4c(c3)CN(C3CCC(=O)NC3=O)C4=O)CC2)=C(c2ccc(Cl)cc2)C1 (stereo not shown) [GT-05453, 3-(5-(4-((4′-chloro-5,5-dimethyl-3,4,5,6-tetrahydro-[1,1′-biphenyl]-2-yl)methyl)-1,4-diazepane-1-carbonyl)-1-oxoisoindolin-2-yl)piperidine-2,6-dione] | 1.24
9 | CC1(C)CCC(CN2C[C@@H]3C[C@H]2CN3C(=O)c2ccc3c(c2)CN(C2CCC(=O)NC2=O)C3=O)=C(c2ccc(Cl)cc2)C1 (stereo partly drawn) [GT-05442, 3-(5-((1S,4S)-5-((4′-chloro-5,5-dimethyl-3,4,5,6-tetrahydro-[1,1′-biphenyl]-2-yl)methyl)-2,5-diazabicyclo[2.2.1]heptane-2-carbonyl)-1-oxoisoindolin-2-yl)piperidine-2,6-dione] | 0.67
10 | CC1(C)CCC(C(=O)N2CC3CN(Cc4ccc5c(c4)CN(C4CCC(=O)NC4=O)C5=O)CC3C2)=C(c2ccc(F)cc2)C1 (stereo not shown) [GT-05405, 3-(5-((5-(4′-fluoro-5,5-dimethyl-3,4,5,6-tetrahydro-[1,1′-biphenyl]-2-carbonyl)hexahydropyrrolo[3,4-c]pyrrol-2(1H)-yl)methyl)-1-oxoisoindolin-2-yl)piperidine-2,6-dione] | 0.5
11 | CC1(C)CCC(CN2C[C@H]3C[C@@H]2CN3Cc2ccc3c(c2F)CN(C2CCC(=O)NC2=O)C3=O)=C(c2ccc(Cl)cc2)C1 (stereo partly drawn) [GT-03888, 3-(5-(((1R,4R)-5-((4′-chloro-5,5-dimethyl-3,4,5,6-tetrahydro-[1,1′-biphenyl]-2-yl)methyl)-2,5-diazabicyclo[2.2.1]heptan-2-yl)methyl)-4-fluoro-1-oxoisoindolin-2-yl)piperidine-2,6-dione] | 0.24
12 | O=C1CCC(N2Cc3c(CN4CCN(C(=O)C5=C(c6ccc(F)cc6)CCCC5)CC4)cccc3C2=O)C(=O)N1 (stereo not shown) [GT-05471, 3-(4-((4-(4′-fluoro-3,4,5,6-tetrahydro-[1,1′-biphenyl]-2-carbonyl)piperazin-1-yl)methyl)-1-oxoisoindolin-2-yl)piperidine-2,6-dione] | 1.08
13 | CC1(C)CCC(CN2CC3CN(Cc4ccc5c(c4)CN(C4CCC(=O)NC4=O)C5=O)CC3C2)=C(c2ccc(F)cc2)C1 (stereo not shown) [GT-05398, 3-(5-((5-((4′-fluoro-5,5-dimethyl-3,4,5,6-tetrahydro-[1,1′-biphenyl]-2-yl)methyl)hexahydropyrrolo[3,4-c]pyrrol-2(1H)-yl)methyl)-1-oxoisoindolin-2-yl)piperidine-2,6-dione] | 1.05
14 | O=C1CCC(N2Cc3cc(CN4C5CC4CN(C(=O)C4=C(c6ccc(F)cc6)CCCC4)C5)ccc3C2=O)C(=O)N1 (stereo not shown) [GT-04169, 3-(5-((3-(4′-fluoro-3,4,5,6-tetrahydro-[1,1′-biphenyl]-2-carbonyl)-3,6-diazabicyclo[3.1.1]heptan-6-yl)methyl)-1-oxoisoindolin-2-yl)piperidine-2,6-dione] | 0.85
15 | O=C1CCC(N2Cc3c(CN4C5CC4CN(C(=O)C4=C(c6ccc(F)cc6)CCCC4)C5)cccc3C2=O)C(=O)N1 (stereo not shown) [GT-05478, 3-(4-((3-(4′-fluoro-3,4,5,6-tetrahydro-[1,1′-biphenyl]-2-carbonyl)-3,6-diazabicyclo[3.1.1]heptan-6-yl)methyl)-1-oxoisoindolin-2-yl)piperidine-2,6-dione] | 1.12
16 | O=C1CCC(N2Cc3cc(CC4CCN(Cc5ccccc5-c5ccc(Cl)cc5)CC4)ccc3C2=O)C(=O)N1 (stereo not shown) [GT-03361, 3-(5-((1-((4′-chloro-[1,1′-biphenyl]-2-yl)methyl)piperidin-4-yl)methyl)-1-oxoisoindolin-2-yl)piperidine-2,6-dione] | 1.59
17 | O=C1CCC(N2Cc3cc(CN4C5CC4CN(Cc4ccccc4-c4ccc(Cl)cc4)C5)c(F)cc3C2=O)C(=O)N1 (stereo not shown) [GT-05609, 3-(5-((3-((4′-chloro-[1,1′-biphenyl]-2-yl)methyl)-3,6-diazabicyclo[3.1.1]heptan-6-yl)methyl)-6-fluoro-1-oxoisoindolin-2-yl)piperidine-2,6-dione] | 0.54
18 | O=C1CCC(N2Cc3c(C(=O)N4CCN(Cc5ccccc5-c5ccc(Cl)cc5)CC4)cccc3C2=O)C(=O)N1 (stereo not shown) [GT-05486, 3-(4-(4-((4′-chloro-[1,1′-biphenyl]-2-yl)methyl)piperazine-1-carbonyl)-1-oxoisoindolin-2-yl)piperidine-2,6-dione] | 1.56
19 | O=C1CCC(N2Cc3cc(CN4C5CC4CN(C(=O)C4=C(c6ccc(F)cc6)CCCC4)C5)c(F)cc3C2=O)C(=O)N1 (stereo not shown) [GT-05476, 3-(6-fluoro-5-((3-(4′-fluoro-3,4,5,6-tetrahydro-[1,1′-biphenyl]-2-carbonyl)-3,6-diazabicyclo[3.1.1]heptan-6-yl)methyl)-1-oxoisoindolin-2-yl)piperidine-2,6-dione] | 1.2
